Data reported in US20230202973A1, “BARNESIN A, DERIVATIVES AND USES THEREOF” (Leibniz-Institut Für Naturstoff-Forschung Und …, priority 2018, published 2023).
Square brackets hold non-standard residues; d marks the D form. Peptide text beside a SMILES is read from it. * marks the point of attachment. Sta = CC(C)C[C@H](N)[C@@H](O)CC(=O)O; Isovaleryl = CC(C)CC(=O)*

Columns and labels:
[1] = molecular target: Cathepsin B (Homo sapiens, UniProt P07858); test: Activity test against cathepsin B (initial screen, Table 5); type: biochemical; parameters: dose or concentration left out as unconfirmed
Method: (§1) Activity Tests Against Cathepsin B, Cathepsin L and Rhodesain.
(§2) The determination of the activity of the inhibitors against hCatL and RD was performed in fluorescence-based assays in accordance with the assays described in Giroud et al., ChemMedChem 12 (2017), 257-270 and Schirmeister, Bioorganic & Medicinal Chemistry Letters 27 (2017) 45-50. The biological activities against hCatL were determined using Cbz-Phe-Arg-AMC as substrate, which releases AMC (7-amino-4-methylcoumarin) after amide bond cleavage by the enzyme. The proteolytic activity of the enzyme can be monitored spectrophotometrically by the increase of fluorescence intensity by release of AMC (emission at 460 nm) upon hydrolysis. An initial screen at an inhibitor concentration […] was performed to identify ligands with an inhibition of hCatL and RD higher than 80%.

[2] = molecular target: hCatL (Homo sapiens, UniProt P07711); test: Fluorescence-based activity test against cathepsin L (Cbz-Phe-Arg-AMC); type: biochemical; parameters: dose or concentration left out as unconfirmed
Chain of hCatL (P07711 114-333): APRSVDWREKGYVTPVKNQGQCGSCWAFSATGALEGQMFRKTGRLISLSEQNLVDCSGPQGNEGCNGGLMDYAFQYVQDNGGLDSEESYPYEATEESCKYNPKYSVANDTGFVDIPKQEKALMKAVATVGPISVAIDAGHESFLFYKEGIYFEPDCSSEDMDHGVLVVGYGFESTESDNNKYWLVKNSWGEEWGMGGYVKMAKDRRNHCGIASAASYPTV
Method: as §1, §2

[3] = Microsome stability assay; type: in vitro ADME; conditions: for Area rel. [%] (liver microsomes, NC): 90 min, 1 µM, pH 7.4; for Area rel. [%] (liver microsomes, PC): positive control, relative to t=0
Method: Microsome Stability Assay The liver is the main organ of drug metabolism in the body. Subcellular fractions such as liver microsomes are useful in vitro models of hepatic clearance as they contain many of the drug metabolising enzymes found in the liver. Liver microsomes are subcellular fractions which contain membrane bound drug metabolising enzymes. The microsomes are incubated with the test compound at 37° C. in the presence of the co-factors, which initiates the reaction. The reaction is terminated by the addition of organic solvents containing internal standard. Following centrifugation, the supernatant is analysed on the LC-MS/MS. The disappearance of test compound is monitored over certain time period. Here, a microsome stability assay was used to investigate the metabolism of the compounds; using this assay it is possible to measure in vitro the intrinsic clearance or to identify metabolites formed. For a standard assay the following solutions were used: 360 μL Microsomal solution (1.1 mg/mL in phosphate buffer), 360 μL NADP-regeneration mix (containing NADP (10 mM), MgCl2 (50 mM), glucose-6-phosphate (50 mM), glucose-6-phosphate dehydrogenase (50 U/ml)) and 40 μL phosphate buffer (100 mM, pH 7.4). Diclofenac (10 μL, 200 μM) was used as positive control (360 μL Microsomal solution, 360 μL NADP-regeneration mix and 40 μL Phosphate buffer) and phosphate buffer (360 μL Microsomal solution, 360 μL NADP-regeneration mix) served as negative control. […] The following procedure was applied: 40 μL of the working solution was added to a pre-incubated solution containing the microsomal solution and the NADP-regeneration mix at 37° C./1500 rpm. Samples were prepared as follows: […] Samples were mixed at 1500 rpm for 2 min, centrifuged for 2 min at 16.1 krcf. 5 uL of each sample was injected to a UPLC/HRMS system and the peak areas of the extracted ion chromatograms were determined

[4] = Glutathione (GSH) assay; type: in vitro ADME; conditions: relative to t=0; for Area rel. [%] (GSH assay, NC): negative control: test item in phosphate buffer without GSH, time 90 min; for Area rel. [%] (GSH assay): with GSH, 37° C.
Method: Procedure: A standard GSH assay includes a phosphate buffer (720 μL), a GSH solution (40 μL, 100 mM) and the test solution of the test compound (20 μM in 10% DMSO in phosphate buffer (100 mM, pH 7.4)). As negative control (NC) serves the test item (20 μM in 10% DMSO in phosphate buffer (100 mM, pH 7.4) in phosphate buffer (760 μL).
Samples are prepared as follows: phosphate buffer (720 μL) and GSH solution (40 μL, 100 mM) were preincubated at 37° C., and 40 μL of the test item solution (or internal standard) added. Then […] of the assay mixture were mixed with 100 μL ACN were at the following time points: t=0, 30 and 90 min; in case of the test item, t=0 and 90 min in case of PC or NC. The samples were mixed for 2 min at 150 rpm, centrifuged at 16.1 (krcf). 5 μL of each samples were injected to a UPLC/HRMS system. The peak areas of the extracted ion chromatograms were determined using the standard software.

[5] = molecular target: T1, pepsin (Sus scrofa, UniProt P00791); test: Protease assay with azocasein: pepsin; type: biochemical; conditions: 1 μg/mL
T1 construct: purchased Sigma-Aldrich P6887
T1 sequence (P00791 60-385): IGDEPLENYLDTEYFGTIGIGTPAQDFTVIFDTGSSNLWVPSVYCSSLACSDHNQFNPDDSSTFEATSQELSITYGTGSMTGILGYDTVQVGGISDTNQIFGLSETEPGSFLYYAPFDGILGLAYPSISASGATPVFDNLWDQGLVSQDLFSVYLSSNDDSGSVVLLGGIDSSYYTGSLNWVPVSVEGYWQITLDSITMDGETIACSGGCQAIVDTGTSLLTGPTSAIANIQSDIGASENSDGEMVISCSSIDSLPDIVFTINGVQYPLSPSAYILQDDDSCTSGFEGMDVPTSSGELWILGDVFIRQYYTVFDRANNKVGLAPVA
Method: (§3) Protease Assays with azocasein: Protease inhibition assays against the proteases papain, ficin, trypsin, pepsin and thermolysin were performed according to the protocol of Garcia-Carreño (loc. cit.) in a reaction buffer containing 25 mM TRIS-HCl, 0.15 M NaCl, pH 7.2 (or pH 3.5 for aspartic protease). The total assay volume was 47 μL buffer with 2 μL of the protease as well as 1 μL of suitable inhibitor or corresponding inhibitor solvent (100% MeoH or water). Final concentration of proteases was as follows: 2 mg/mL for papain (Sigma-Aldrich, P4762), 600 μg/mL for ficin (Sigma-Aldrich, F6008), 80 μg/mL for trypsin (Thermo Fisher, 23266), 60 mg/mL for pepsin (Sigma-Aldrich P6887)) and 2 μg/mL for thermolysin (Sigma-Aldrich, P1512).
(§4) Inhibitors were dissolved in 100% MeOH or water and added to the assay (1 μL); final concentration: 2% MeOH. Samples of control inhibitors were prepared as follows: (1) serine protease (trypsin): PMFS (2 mM) and soybean trypsin inhibitor (240 μM) (Sigma-Aldrich, T1021), (2) cysteine proteases (papain and ficin): iodacetamide (2 mM), (3) […] (pepsin): pepstatin A (1 μg/mL) (Sigma-Aldrich, P4265), (4) metalloprotease (thermolysin): EDTA (10 mM). […] Negative controls were performed with protease alone (without inhibitor) and MeOH at a final concentration of 2% (reference for activity of 100%). Extract absorbance controls were performed using inhibitor (1 μL in MeOH) without protease. Blanks were performed using 49 μL buffer and 1 μL MeOH.
(§5) Samples were incubated with buffer and suitable inhibitor (or without for negative controls) for 1 h at r.t. and the reaction was started afterward by adding 50 μl of […] substrate and incubated for 1 h at 37° C. After stopping the reaction with trichloracetic acid (TCA), the separation of the precipitate was accomplished by centrifugation at 6500 g for 5 min. The hydrolyzed substrate supernatant was incubated in an equal volume of 0.5 N NaOH for 5 min and the absorbance was measured at 440 nm. OD values of the protease control without inhibitor were used as reference for a 100% activity.
(§6) The log IC50 values were determined using the standard curves analyzing tool with four parameter logistic equation of SigmaPlot12 with technical triplicates. Propagation of error was calculated using the standard error and log IC50 values where the equation of error propagation is defined as Δy=0.43Δx/x.

[6] = molecular target: T2, thermolysin (Bacillus thermoproteolyticus, UniProt P00800); test: Protease assay with azocasein: thermolysin; type: biochemical; conditions: 10 mM
T2 construct: purchased Sigma-Aldrich P1512
T2 sequence (P00800 233-548): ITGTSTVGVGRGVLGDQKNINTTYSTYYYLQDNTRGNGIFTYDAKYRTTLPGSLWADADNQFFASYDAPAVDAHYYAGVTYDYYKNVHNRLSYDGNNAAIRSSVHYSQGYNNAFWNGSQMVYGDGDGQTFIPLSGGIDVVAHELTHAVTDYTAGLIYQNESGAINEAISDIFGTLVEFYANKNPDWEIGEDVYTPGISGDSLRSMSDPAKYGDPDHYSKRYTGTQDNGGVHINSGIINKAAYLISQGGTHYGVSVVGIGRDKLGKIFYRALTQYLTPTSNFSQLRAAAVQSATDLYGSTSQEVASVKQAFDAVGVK
Method: as §3, §4, §5, §6

CCCCC/C=C/C(=O)N[C@@H](Cc1ccc(O)cc1)C(=O)N[C@@H](/C=C/C(=O)O)CCCNC(=N)N [drawing 48]
inhibition [1]: 15%
inhibition [2]: 20%

CCCCC/C=C/C(=O)N[C@@H](Cc1ccc(O)cc1)C(=O)N[C@@H](/C=C/C(=O)O)CCCCN [drawing 60]
Area rel. [%] (liver microsomes, NC) [3]: 95.7%

CCCCC/C=C/C(=O)N[C@@H](Cc1ccc(O)cc1)C(=O)N[C@H](/C=C/C(=O)O)CCCNC(=N)N [drawing 45]
inhibition [1]: 50%
inhibition [2]: 95%

CC(=O)N[C@@H](Cc1ccc(O)cc1)C(=O)N[C@H](/C=C/C(=O)O)CCCNC(=N)N [drawing 58]
Area rel. [%] (GSH assay, NC) [4]: 108.9%
Area rel. [%] (GSH assay) ([4]; pH 7.4, time 90 min): 112.8%

CCCCC/C=C/C(=O)N[C@@H](Cc1ccc(O)cc1)C(=O)N[C@@H](/C=C/C(=O)O)CCCCN [drawing 46]
inhibition [1]: 73%
inhibition [2]: 96%

CC(C)CC(=O)N[C@H](C(=O)N[C@H](C(=O)N[C@@H](CC(C)C)[C@@H](O)CC(=O)N[C@@H](C)C(=O)N[C@@H](CC(C)C)[C@@H](O)CC(=O)O)C(C)C)C(C)C [pepstatin A, reference compound] (Isovaleryl-VV[Sta]A[Sta]-OH)
inhibited enzyme activity (pepsin), control inhibitor [5]: > 95%

CCCCCCCC(=O)N[C@@H](Cc1ccc(O)cc1)C(=O)N[C@H](/C=C/C(=O)O)CCCNC(=N)N [drawing 50]
inhibition [1]: 30%
inhibition [2]: 80%

CC(=O)N[C@@H](Cc1ccc(O)cc1)C(=O)N[C@H](/C=C/C(=O)O)CCCNC(=N)N [drawing 66]
Area rel. [%] (liver microsomes, NC) [3]: 111.9%

CCCCC/C=C/C(=O)N[C@@H](Cc1ccc(O)cc1)C(=O)N[C@@H](/C=C/C(=O)O)CCCNC(=N)N [drawing 62]
Area rel. [%] (liver microsomes, NC) [3]: 102.8%

CCCCC/C=C/C(=O)N[C@@H](Cc1ccccc1)C(=O)N[C@H](/C=C/C(=O)O)CCCNC(=N)N [drawing 47]
inhibition [1]: 41%
inhibition [2]: 90%

CCCCC/C=C/C(=O)N[C@H](Cc1ccc(O)cc1)C(=O)N[C@H](/C=C/C(=O)O)CCCNC(=N)N [drawing 55]
Area rel. [%] (GSH assay, NC) [4]: 91.9%
Area rel. [%] (GSH assay) ([4]; pH 7.4, time 90 min): 98.6%

CCCCC/C=C/C(=O)N[C@@H](Cc1ccc(O)cc1)C(=O)N[C@H](/C=C/C(=O)O)CCCNC(=N)N [drawing 59]
Area rel. [%] (liver microsomes, NC) [3]: 92.3%

CCCCC/C=C/C(=O)N[C@@H](Cc1ccccc1)C(=O)N[C@H](/C=C/C(=O)O)CCCNC(=N)N [drawing 61]
Area rel. [%] (liver microsomes, NC) [3]: 89.2%

CCCCCCCC(=O)N[C@@H](Cc1ccc(O)cc1)C(=O)N[C@@H](CCCNC(=N)N)CCC(=O)O [drawing 65]
Area rel. [%] (liver microsomes, NC) [3]: 99.5%

CCCCC/C=C/C(=O)N[C@@H](Cc1ccc(O)cc1)C(=O)N[C@H](/C=C/C(=O)O)CCCNC(=N)N [drawing 51]
Area rel. [%] (GSH assay, NC) [4]: 91.9%
Area rel. [%] (GSH assay) ([4]; pH 7.4, time 30 min): 93.3%
Area rel. [%] (GSH assay) ([4]; pH 7.4, time 90 min): 94.2%

CCCCC/C=C/C(=O)N[C@@H](Cc1ccc(O)cc1)C(=O)N[C@@H](/C=C/C(=O)O)CCCCN [drawing 52]
Area rel. [%] (GSH assay, NC) [4]: 103.9%
Area rel. [%] (GSH assay) ([4]; pH 7.4, time 30 min): 104.3%
Area rel. [%] (GSH assay) ([4]; pH 7.4, time 90 min): 98.0%

O=C(O)CN(CCN(CC(=O)O)CC(=O)O)CC(=O)O [EDTA, reference compound]
inhibited enzyme activity (thermolysin), control inhibitor [6]: > 95%

CCCCCCCC(=O)N[C@@H](Cc1ccc(O)cc1)C(=O)N[C@H](/C=C/C(=O)O)CCCNC(=N)N [drawing 64]
Area rel. [%] (liver microsomes, NC) [3]: 104.3%

CCCCC/C=C/C(=O)N[C@H](Cc1ccc(O)cc1)C(=O)N[C@H](/C=C/C(=O)O)CCCNC(=N)N [drawing 63]
Area rel. [%] (liver microsomes, NC) [3]: 105.8%

CCCCC/C=C/C(=O)N[C@@H](Cc1ccccc1)C(=O)N[C@H](/C=C/C(=O)O)CCCNC(=N)N [drawing 53]
Area rel. [%] (GSH assay, NC) [4]: 101.8%
Area rel. [%] (GSH assay) ([4]; pH 7.4, time 30 min): 102.7%
Area rel. [%] (GSH assay) ([4]; pH 7.4, time 90 min): 106.2%

O=C(O)Cc1ccccc1Nc1c(Cl)cccc1Cl [Diclo, Diclofenac, reference compound]
Area rel. [%] (liver microsomes, PC) ([3]; time 10 min): 49.0%
Area rel. [%] (liver microsomes, PC) ([3]; time 35 min): 3.8%
